Measurements taken from US7968570B2, “Isoindolone compounds and their use as metabotropic glutamate receptor potentiators” (AstraZeneca AB, priority 2004, dated 2011).
pEC50: −log10 of the molar value. Where two headings read alike, the source gives them in different places.

Biological target: T1, human mGluR2 receptor (Homo sapiens, UniProt Q14416)
T1 construct: expressed in transfected cells
Experiment: [35S]-GTPγS binding assay of mGluR2 receptor activation
Assay type: biochemical
Procedure: A [^35S]-GTPγS binding assay was used to functionally assay mGluR2 receptor activation. The allosteric activator activity of compounds at the human mGluR2 receptor were measured using a [^35S]-GTPγS binding assay with membranes prepared from CHO cells which stably express the human mGluR2. The assay is based upon the principle that agonists bind to G-protein coupled receptors to stimulate GDP-GTP exchange at the G-protein. Since [^35S]-GTPγS is a non-hydrolyzable GTP analog, it can be used to provide an index of GDP-GTP exchange and, thus, receptor activation. The GTPγS binding assay therefore provides a quantitative measure of receptor activation.
Membranes were prepared from CHO cells stably transfected with human mGluR2. Membranes (30 μg protein) were incubated with test compound (3 nM to 300 μM) for 15 minutes at room temperature prior to the addition of 1 μM glutamate, and incubated for 30 min at 30° C. in 500 μl assay buffer (20 mM HEPES, 100 mM NaCl, 10 mM MgCl2), containing 30 μM GDP and 0.1 nM [^35S]-GTPγS (1250 Ci/mmol). Reactions were carried out in triplicate in 2 ml polypropylene 96-well plates. Reactions were terminated by vacuum filtration using a Packard 96-well harvester and Unifilter-96, GF/B filter microplates. The filter plates were washed 4×1.5 ml with ice-cold wash buffer (10 mM sodium phosphate buffer, pH 7.4). The filter plates were dried and 35 μl of scintillation fluid (Microscint 20) was added to each well. The amount of radioactivity bound was determined by counting plates on the Packard TopCount. Data was analyzed using GraphPad Prism, and EC50 and Emax values (relative to the maximum glutamate effect) were calculated using non-linear regression.

[1] = membranes from CHO cells stably expressing human mGluR2, 1 μM glutamate

T1 sequence (Q14416 19-872): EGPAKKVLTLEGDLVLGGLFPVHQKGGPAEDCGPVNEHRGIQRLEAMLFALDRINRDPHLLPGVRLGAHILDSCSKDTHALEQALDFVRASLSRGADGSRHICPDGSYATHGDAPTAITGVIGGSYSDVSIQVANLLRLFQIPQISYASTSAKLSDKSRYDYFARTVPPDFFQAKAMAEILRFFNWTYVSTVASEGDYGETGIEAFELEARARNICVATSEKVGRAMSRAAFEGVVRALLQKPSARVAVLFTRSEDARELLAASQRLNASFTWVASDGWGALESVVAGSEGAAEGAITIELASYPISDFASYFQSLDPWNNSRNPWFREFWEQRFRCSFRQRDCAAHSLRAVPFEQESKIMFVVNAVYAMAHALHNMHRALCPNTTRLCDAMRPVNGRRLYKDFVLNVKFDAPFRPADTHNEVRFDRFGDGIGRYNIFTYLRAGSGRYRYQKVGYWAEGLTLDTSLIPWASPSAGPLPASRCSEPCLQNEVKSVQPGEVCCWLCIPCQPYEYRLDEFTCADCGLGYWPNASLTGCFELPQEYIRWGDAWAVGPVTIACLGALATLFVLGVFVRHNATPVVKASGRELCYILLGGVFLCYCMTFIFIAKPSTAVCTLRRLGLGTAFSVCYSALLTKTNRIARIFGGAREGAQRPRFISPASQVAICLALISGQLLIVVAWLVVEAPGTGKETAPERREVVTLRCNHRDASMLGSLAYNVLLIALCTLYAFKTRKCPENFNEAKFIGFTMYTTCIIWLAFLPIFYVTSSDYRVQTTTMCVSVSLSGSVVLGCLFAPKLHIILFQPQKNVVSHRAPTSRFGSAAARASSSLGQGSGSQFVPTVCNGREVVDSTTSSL

Compound	pEC50 [1]	pEC50
O=C1c2ccc(N3CCC4(CC3)C(=O)N(Cc3ccc(F)cc3)CN4c3ccccc3)cc2CN1Cc1ccc(OC(F)(F)F)cc1 [Example 153, 3-(4-Fluoro-benzyl)-8-[1-oxo-2-(4-trifluoromethoxy-benzyl)-2,3-dihydro-1H-isoindol-5-yl]-1-phenyl-1,3,8-triaza-spiro[4.5] decan-4-one]	5.58	
COc1cc(N2CCN3CCCC3C2)cc2c1C(=O)N(Cc1ccc(Cl)cc1)C2 (stereo not drawn) [Example 129]	5.20	
O=C(CN1CCN(c2cc(Cl)c3c(c2)CN(Cc2ccc(OC(F)(F)F)cc2)C3=O)CC1)N1CCCC1 [Example 156, 7-Chloro-5-[4-(2-oxo-2-pyrrolidin-1-yl-ethyl)-piperazin-1-yl]-2-(4-trifluoromethoxy-benzyl)-2,3-dihydro-isoindol-1-one]	6.49	
Cc1cc(CN2CCC(CCCc3ccc(-n4ccnc4)cc3)CC2)cc2c1C(=O)N(Cc1ccc(OC(F)(F)F)cc1)C2 [Example 55, 5-{4-[3-(4-Imidazol-1-yl-phenyl)-propyl]-piperidin-1-ylmethyl}-7-methyl-2-(4-trifluoromethoxy-benzyl)-2,3-dihydroisoindol-1-one]	7.70	
COc1cc(C2=CCNCC2)cc2c1C(=O)N(Cc1ccc(OC(F)(F)F)cc1)C2 [Example 92]	5.87	
Cc1cc(N2CCN(CCCN(C)C)CC2)cc2c1C(=O)N(Cc1ccc(OC(F)(F)F)cc1)C2 [Example 141, 5-[4-(3-Dimethylamino-propyl)-piperazin-1-yl]-7-methyl-2-(4-trifluoro-methoxy-benzyl)-2,3-dihydro-isoindol-1-one]	6.12	
COCCN1CCN(c2cc(Cl)c3c(c2)CN(Cc2ccc(OC(F)(F)F)cc2)C3=O)CC1 [Example 154, 7-Chloro-5-[4-(2-methoxy-ethyl)-piperazin-1-yl]-2-(4-trifluoromethoxy-benzyl)-2,3-dihydro-isoindol-1-one]	6.68	
O=C1c2c(Cl)cc(N3CCN4CCCC4C3)cc2CN1Cc1ccc(Cl)cc1 (stereo not drawn) [Example 134, 7-Chloro-2-(4-chloro-benzyl)-5-(hexahydro-pyrrolo[1,2-a]pyrazin-2-yl)-2,3-dihydro-isoindol-1-one]	6.21	
O=C1c2c(Cl)cc(Br)cc2CN1Cc1ccc(Cl)cc1 [Example 34, 5-Bromo-7-chloro-2-(4-chloro-benzyl)-2,3-dihydro-isoindol-1-one]	6.33	
Cc1cc(N2CCC(N(C)C)C2)cc2c1C(=O)N(Cc1ccc(Cl)cc1)C2 (stereo not drawn) [Example 119, 2-(4-chlorobenzyl)-5-(3-dimethylamino-pyrollidin-1-yl)-7-methyl-2,3-dihydroisoindol-1-one]	6.38	
CN1CN(c2ccccc2)C2(CCN(c3ccc4c(c3)CN(Cc3ccc(OC(F)(F)F)cc3)C4=O)CC2)C1=O [Example 151, 3-Methyl-8-[1-oxo-2-(4-trifluoromethoxy-benzyl)-2,3-dihydro-1H-isoindol-5-yl]-1-phenyl-1,3,8-triaza-spiro[4.5]decan-4-one]	6.32	
Cc1cc(N2CCN3CCCC3C2)cc2c1C(=O)N(Cc1ccc(OC(F)(F)F)cc1)C2 (stereo not drawn) [Example 111, 5- (Hexahydropyrrolo [1,2-a]pyrazin-2-yl)-7-methyl-2-(4-trifluoromethoxybenzyl)-2,3-dihydroisoindol-1-one]	6.22	
Cc1cc(CC2CCN(C(C)C)CC2)cc2c1C(=O)N(Cc1ccc(OC(F)(F)F)cc1)C2 [Example 174, 5-(1-isopropyl-piperidin-4-ylmethyl)-7-methyl-2-(4-trifluorometh-oxy-benzyl)-2,3-dihydro-isoindol-1-one]		6.13
O=C1c2ccc(N3CCC(CCCc4ccccc4)CC3)cc2CN1Cc1ccc(OC(F)(F)F)cc1 [Example 152, 5-[4-(3-Phenyl-propyl)-piperidin-1-yl]-2-(4-trifluoromethoxy-benzyl)-2,3-dihydro-isoindol-1-one]	6.29	
O=C1c2c(Cl)cc(N3CCOCC3)cc2CN1Cc1ccc(OC(F)(F)F)cc1 [Example 155, 7-Chloro-5-morpholin-4-yl-2-(4-trifluoromethoxy-benzyl)-2,3-dihydro-isoindol-1-one]	6.28	
CN(C)[C@H]1CCN(c2cc(Cl)c3c(c2)CN(Cc2ccc(OC(F)(F)F)cc2)C3=O)C1 (stereo in doubt) [Example 144, 7-Chloro-5-(3-dimethylamino-pyrrolidin-1-yl)-2-(4-trifluoromethoxy-benzyl)-2,3-dihydro-isoindol-1-one]	6.51	

Next, values leading:

pEC50 [1]	pEC50	Compound
7.05		O=C1c2c(Cl)cc(-c3ccncc3)cc2CN1Cc1ccc(OC(F)(F)F)cc1 [Example 102, 7-Chloro-5-pyridin-4-yl-2-(4-trifluoromethoxy-benzyl)-2,3-dihydro-isoindol-1-one]
	6.85	CCN(CC)Cc1noc(-c2cc(C)c3c(c2)CN(Cc2ccc(OC(F)(F)F)cc2)C3=O)n1 [Example 177, 5-(3- Diethylaminomethyl-[1,2,4]oxadiazol-5-yl)-7-methyl-2-(4-trifluorometh-oxy-benzyl)-2,3-dihydro-isoindol-1-one]
7.30		Cc1cc(-c2cccnc2)cc2c1C(=O)N(Cc1ccc(OC(F)(F)F)cc1)C2 [Example 95, 7-Methyl-5-pyridin-3-yl-2-(trifluoromethoxybenzyl)-2,3-dihydroisoindol-1-one]
5.30		COc1cc(N2CCCN(C)CC2)cc2c1C(=O)N(Cc1ccc(OC(F)(F)F)cc1)C2 [Example 128, 7-Methoxy-5-(4-methyl-[1,4]-diazepan-1-yl)-2-(4-triflouoromethoxy-benzyl)-2,3-dihydro-isoindol-1-one]
6.40		O=C1c2c(Cl)cc(N3CCN(c4ccncc4)CC3)cc2CN1Cc1ccc(OC(F)(F)F)cc1 [Example 145, 7-Chloro-5-(4-pyridin-4-yl-piperazin-1-yl)-2-(4-trifluoromethoxy-benzyl)-2,3-dihydro-isoindol-1-one]
5.33		CCN1CCN(c2cc3c(c(OC)c2)C(=O)N(Cc2ccc(OC(F)(F)F)cc2)C3)CC1 [Example 127, 5-(4-Ethylpiperazin-1-yl)-7-methoxy-2-(4-trifluoromethoxy-benzyl)-2,3-dihydroisoindol-1-one]
7.00		Cc1cc(OCc2ccccn2)cc2c1C(=O)N(Cc1ccc(OC(F)(F)F)cc1)C2 [Example 82, 7-Methyl-5-(pyridine-2-ylmethoxy)-2-(4-trifluoromethoxy-benzyl)-2,3-dihydro-isoindol-1-one]
	5.67	CNCc1nnc(-c2cc(C)c3c(c2)CN(Cc2ccc(OC(F)(F)F)cc2)C3=O)o1 [Example 181, 7-Methyl-5-(5-methylaminomethyl-[1,3,4]oxadiazol-2-yl)-2-(4-trifluorometh-oxy-benzyl)-2,3-dihydro-isoindol-1-one]
6.40		COc1cc(-c2ccncc2)cc2c1C(=O)N(Cc1ccc(OC(F)(F)F)cc1)C2 [Example 99, 7-Methoxy-5-pyridin-4-yl-2-(4-trifluoromethoxy-benzyl)-2,3-dihydroisoindol-1-one]
5.74		COCCCNCc1cc(C)c2c(c1)CN(Cc1ccc(OC(F)(F)F)cc1)C2=O [Example 51, 5-[(3-Methoxy-propylamino)-methyl]-7-methyl-2-(4-trifluoromethoxy-benzyl)-2,3-dihydro-isoindol-1-one]
6.89		O=C1c2c(Cl)cc(-c3ccncc3)cc2CN1Cc1ccc(Cl)cc1 [Example 106, 7-Chloro-2-(4-chloro-benzyl)-5-pyridin-4-yl-2,3-dihydro-isoindol-1-one]
	7.10	Cc1cc(CC2CCN(Cc3ccncc3)CC2)cc2c1C(=O)N(Cc1ccc(OC(F)(F)F)cc1)C2 [Example 170, 7-methyl-5-(1-pyridin-4-ylmethyl-piperidin-4-ylmethyl)-2-(4-trifluorometh-oxy-benzyl)-2,3-dihydro-isoindol-1-one]
7.22		Cc1cc(-c2ccc(CN(C)C)cc2)cc2c1C(=O)N(Cc1ccc(OC(F)(F)F)cc1)C2 [Example 86, 5-(4-Dimethylamino-methyl-phenyl)-7-methyl-2-(4-trifluoromethoxy-benzyl)-2,3-dihydro-isoindol-1-one]
6.44		O=C1c2c(Cl)cc(-c3cccnc3)cc2CN1Cc1ccc(Cl)cc1 [Example 107, 7-Chloro-2-(4-chloro-benzyl)-5-pyridin-3-yl-2,3-dihydro-isoindol-1-one]
7.30		Cc1cc(CN2CCN(c3ccccn3)CC2)cc2c1C(=O)N(Cc1ccc(OC(F)(F)F)cc1)C2 [Example 43, 7-Methyl-5-(4-pyridin-2-yl-piperazin-1-ylmethyl)-2-(4-trifluoromethoxy-benzyl)-2,3-dihydro-isoindol-1-one]
6.23		Cc1cc(CN2CCOCC2)cc2c1C(=O)N(Cc1ccc(OC(F)(F)F)cc1)C2 [Example 44, 7-Methyl-5-morpholin-4-ylmethyl-2-(4-trifluoromethoxy-benzyl)-2,3-dihydro-isoindol-1-one]
5.94		COc1cc(-c2cccnc2)cc2c1C(=O)N(Cc1ccc(Cl)cc1)C2 [Example 101, 2-(4-Chloro-benzyl)-7-methoxy-5-pyridin-3-yl-2,3-dihydro-isoindol-1-one]
